Assay results: publication PMC4240668 (PLoS ONE, 2014)
“Also recorded” adds a separate entry of the source. Read-outs that look alike come from different tables or passages of the source. No end group written: not given here.

Tests used:
[1] = test system: differentiated Caco-2 monolayer; test: Identification of translocated peptides in basal medium of Caco-2 monolayers by MALDI-TOF-MS; conditions: Caco-2 monolayer incubated apically with 32 µmol/L PF-488 labeled parent peptide, 37°C
Experimental: (§1) Cells were pre-incubated with transport medium (Hank's Balanced Salt Solution (HBSS) with Ca^2+, Mg^2+ and glucose) (Invitrogen) (200 µl in the apical, 900 µl in the basal compartment of the transwell system) for 30 min at 37°C. Methyl-β-cyclodextrin (MβCD; Sigma-Aldrich, Munich, Germany; 2 mmol/L) was added to the apical compartment to inhibit endocytosis. Then, PF–488 labeled GP dissolved in 100 µl transport medium were added on the apical side of the cells at a total concentration of 32 µmol/L or 145 µmol/L. Cells were incubated at 37°C for 3 or 24 h. Thereafter, media from both compartments (apical and basal) were removed to be further analyzed by fluorescence spectroscopy and MALDI–TOF–MS; cell inserts were prepared for flow cytometry and confocal laser scanning microscopy.
(§2) For mass spectrometric analyses peptides were concentrated and desalted using C18 ZipTips (Millipore). MALDI–TOF–MS analysis of the apical and basal cell culture media was performed using a Bruker Ultraflex I instrument (Bruker Daltonics, Bremen, Germany) with 2,5-dihydroxybenzoic acid (DHB)/methylenbisphosphonic acid as matrix. For calibration an external standard peptide mixture (Bruker Daltonics) was used. MS-spectra were processed by the software FlexAnalysis (version 3.0, Bruker Daltonics). The peptide sequences of P56–68 and P31–43 as well as fragments of these peptides were deduced from the detected molecular mass considering the H^+, Na^+ and K^+ adducts. Masses were assigned to peptides allegeable to cleavage of GP. Detected GP were quantified by calculating the relative area under the curve (AUC). The values of three independent experiments are given as mean values.

[2] = test system: immature dendritic cells (iDC); test: Cytokine secretion (IL-8, TNF-α) by immature dendritic cells, sandwich ELISA; format: cell-based; conditions: for Secretion of IL-8 and TNF-α by dendritic cells: iDC from CD14+ PBMCs, 100 µg/mL peptide in RPMI + 2% human serum, 24 h, sandwich ELISA, three experiments (Fig. S1)
Experimental: Supplementary file pone.0113932.s001.tiff: Figure S1 Effect of P31–43 and P56–68 on cytokine secretion (IL-8, TNF-α) by immature dendritic cells (iDC). iDC were generated from CD14+ PBMCs by a 5-day incubation with 500 U/mL IL-4 and 1000 U/mL GM-CSF in RPMI media with 10% human serum. Then, iDC were incubated with 100 µg/mL P31–43 or P56–68 in RPMI+2% human serum for 24 h. IL-8 (A) and TNF-α (B) secretion in the media were analyzed by a commercially available sandwich ELISA (R&D, Wiesbaden, Germany). Each experiment was performed three times; data are given as mean ± SD; only significant differences are shown as *p<0.05, **p<0.01. (TIFF) Click here for additional data file.
Supplementary file pone.0113932.s002.tiff: Figure S2 Effect of the basal media - after incubation of a Caco-2 monolayer with P31–43 and P56–68 - on cytokine secretion (IL-8, TNF-α) by immature dendritic cells (iDC). iDC were generated from CD14+ PBMCs by 5-day incubation with 500 U/mL IL-4 and 1000 U/mL GM-CSF in RPMI media with 10% human serum. iDC were incubated 24 h with basal media of Caco-2 monolayers after they had been exposed to PF-488 labeled P31–43 and P56–68 on the apical side of the cells. IL-8 (A) and TNF-α (B) secretion in the media was analyzed by sandwich ELISA. Each experiment was performed three times; data are given as mean ± SD. (TIFF) Click here for additional data file.

[3] = test system: Caco-2 cells (brush border membrane peptidases APN, CPP, DPP IV); test: Digestion of gliadin peptides at the apical side of Caco-2 monolayers, MALDI-TOF-MS relative AUC; conditions: PF-488 labeled peptide at apical side of Caco-2 monolayer, HBSS, 37°C, mean of three independent experiments
Experimental: as §1, §2

[4] = test system: Caco-2 cells (brush border membrane peptidases APN, CPP, DPP IV)
Experimental: as §1, §2

[5] = apical medium (HBSS transport medium) of differentiated Caco-2 monolayer in transwell; conditions: human, 37°C, up to 24 h
[6] = basal medium (HBSS transport medium) of Caco-2 monolayer after apical peptide addition; conditions: human, 37°C, up to 24 h
[7] = basal medium of differentiated Caco-2 monolayer (peptide added apically) in transport medium (HBSS); conditions: human, 37°C; for fragment found: up to 3 h
[8] = apical medium of differentiated Caco-2 monolayer in transport medium (HBSS with Ca2+, Mg2+ and glucose); conditions: human, 37°C, up to 24 h
[9] = basal medium of differentiated Caco-2 monolayer with MβCD in the apical compartment; conditions: human, 37°C, up to 24 h

Peptide detected in basal media after 24 h [1]	Substance	Secretion of IL-8 and TNF-α by dendritic cells [2]	fragment found [5]	fragment found [7]	cleaved bond [8]	other results
detected	LGQQQPFPPQQP [P31–42]	–	–	–	–	Peptide detected in basal media after 3 h ([1]; 3 h): detected
–	LGQQQPFPPQQPY [P31–43]	increased secretion	–	–	–	Cytokine production by iDC with basal culture media of peptide-exposed Caco-2 cells ([2]; iDC incubated 24 h with basal media of Caco-2 monolayers exposed apically to PF-488 labeled peptide, ELISA (Fig. S2)): did not significantly increase; Peptide remaining in the apical compartment still intact ([3]; 3 h, MALDI-TOF-MS after C18 ZipTip, relative AUC): 76%; C-terminal tyrosine residue cleaved (presumably by carboxypeptidase P) ([3]; 24 h, MALDI-TOF-MS relative AUC): 83%
found	LQLQPFPQPQLP [P56–67]	–	–	–	–	–
–	LQLQPFPQPQLPY [P56–68]	no effect	–	–	–	C-terminal tyrosine residue cleaved (presumably by carboxypeptidase P) [4]: 72%
–	PF-LGQQQPFPPQQPY	–	QQPFPPQQP, minor	PF-LGQQQPFPPQQP, 3 h; also recorded: PF-LGQQQP, 3 h; also recorded: PF-LGQQ, 3 h; also recorded: PF-LGQ, 3 h	P-Y, major, 3 h; also recorded: L-G, 3 h; also recorded: G-Q, 3 h; also recorded: P-F, minor, 3 h	cleaved bond [6]: P-Y, 3 h
–	PF-LQLQPFPQPQLPY	–	QLQPFPQPQLP, minor, 3 h; also recorded: LQPFPQPQLP, minor, 3 h; also recorded: QPFPQPQLP, minor, 3 h	PF-LQ, 3 h	P-Y, major, 3 h; also recorded: L-Q, minor, 3 h; also recorded: Q-L, minor, 3 h; also recorded: P-F, minor, 3 h	fragment found [9]: PF-LQLQPFPQPQ, 24 h; also recorded: PF-LQLQP, 24 h; also recorded: PF-LQL, 24 h; also recorded: PF-L, 24 h; also recorded: PF-LQLQPFPQPQLP, 24 h; cleaved bond ([7]; up to 24 h): P-Y, major, 24 h
